Test system: bacterial strain LF82 binding to the glycoprotein BSA-(Mannose)3 (FimH antagonists)
Assay: Bacterial Binding Assay (BBA)
Type: cell-based, Escherichia coli
Conditions: read-out: Bacterial Binding Assay IC50 ± SEM
Text: The purpose of the Bacterial Binding Assay (BBA) is to determine the inhibition activity of selective FimH antagonists on the bacterial strain LF82 binding to the glycoprotein BSA-(Mannose)3.
Below is a list of the Materials used to run the BBA are described below. • 1. LB broth: Supplier: Gibco, #10855 • 2. D-PBS: Supplier: Wisent, #311-425-CL • 3. LB agar plates • 4. 96-well black plate (high binding): Supplier: Costar, #3925 • 5. TopSeal™-A adhesive sealing films; Supplier PerkinElmer, #6005185 • 6. Carbonate-bicarbonate buffer pH 9.6 tablets, Supplier: Medicago, #09-8922-24 • 7. Water, Supplier: Gibco, #15230-162 • 8. Bovine serum albumin (BSA): Supplier: Sigma, #A-7888 • 9. (Man)3-BSA (α1-3, α1-6 Mannotriose-BSA, 1 mg), V-Labs, #NGP1336, lot# HGDX37-169-1 • 10. Tween 20: Supplier: Sigma, #P9416 • 11. Bright-Glo Luciferase Assay System: Supplier: Promega, #E2610 • 12. LF82/Luciferase strain: Invasive ability of an Escherichia coli strain isolated from the ileal mucosa of a patient with Crohn's disease. Boudeau J, Glasser A L, Masseret E, Joly B, Darfeuille-Michaud A, Infect Immun. 1999, 67(9), 4499-509
Solutions and buffers used to run the BBA are described below. • 1. 0.04M carbonate-bicarbonate buffer (coating buffer) • 2. 40 μg/mL BSA-(Man)3: Dissolve 1 mg of (Man)3-BSA in 25 mL of water. • 3. 4000 μg/mL BSA • 4. 40 μg/mL BSA • 5. 1 μg/mL BSA-(Man)3: 150 μL of 40 μg/mL BSA-(Man)3+5.85 mL of 40 μg/mL BSA • 6. 0.5 μg/mL BSA-(Man)3 in 0.02M carbonate-bicarbonate buffer. • 7. 20 μg/mL BSA in 0.02M carbonate-bicarbonate buffer • 8. Blocking buffer (2% BSA/DPBS): 1 g of BSA in 50 mL D-PBS • 9. 2× binding buffer (0.2% BSA/D-PBS): 5 mL of blocking buffer+45 mL D-PBS. • 10. Washing buffer (D-PBS/0.01% Tween 20): 10 μL of Tween 20 in 100 mL D-PBS. • 11. 1× Bright-Glo Luciferase substrate: Dilute 1:1 the Bright-Glo Luciferase Assay System with D-PBS
The experimental protocol used in this example to run the BBA is described below.
Overnight culture of LF82/Luciferase strain: Into two Falcon 50 mL tubes, add 20 mL of LB+20 μL of 50 mg/mL Kanamycin and inoculate with a loop from glycerol stock of the LF82/Luciferase strain. Incubate overnight at 37° C. with no shaking.
Glycoprotein coating of 96-well plates: Add 100 μL/well of 0.5-2 μg/mL BSA-(Man)3. 20 μg/mL BSA is used as the control background. Seal plate using an adhesive sealing film and incubate overnight at room temperature. Wash the 96-well plate three times with 150 μL/well of D-PBS, add 170 μL/well of blocking solution and incubate 45 min (minimum) at room temperature.
Preparation of bacterial suspension: Mix the two cultures tubes (40 mL) and perform a 1:10 dilution in LB (900 μl LB+100 μl culture. Measure optical density (OD) of the bacterial cultures. OD1 ˜5×10^8 cells/mL. Centrifuge LF82 culture for 20 min at 3500 rpm at room temperature. Re-suspend bacterial pellet in D-PBS and centrifuge again for 20 min at 3500 rpm. Re-suspend bacterial pellet in D-PBS to obtain a bacterial concentration of 2×10^9 bacteria/mL. Dilute 1/10 in D-PBS to obtain a final bacterial concentration of 2×10^8 bacteria/mL (=107 bacteria/50 μL). Perform 1/10 serial dilutions in LB of each bacterial suspension, plate 10 μL of dilutions on LB agar plates (final dilutions of 10^−7) and incubate overnight at 37° C. and count CFUs to determine the actual bacteria density in the assay.
Bacterial binding assay: Add 147 μL 2× binding buffer to compound plate (containing 3 μL of compound). After blocking step is performed (at least 45 min), wash plates three times with 200 μL/well of D-PBS. With a 100 μL multichannel manual pipettor, add 50 μL/well of compound diluted in 2× binding buffer. With a 100 μL multichannel manual pipettor, add 50 μL/well of bacterial suspension. Agitate at slow speed for 1 min and incubate 40-75 min at room temperature. Wash 5 times with 150 μL/well of washing buffer and then once with D-PBS. Add 100 μL/well of 1× Bright-Glo Luciferase substrate. […]

Row | Compound | IC50 [nM]
1 | CCCCc1cc(C#C[C@H]2O[C@H](CO)[C@@H](O)[C@H](O)[C@@H]2O)c2[nH]ncc2c1 [Compound 24, (2R,3S,4R,5S,6R)-2-[2-(5-butyl-1H-indazol-7-yl)ethynyl]-6-(hydroxymethyl)tetrahydropyran-3,4,5-triol] | 1 ± 0.2
2 | OC[C@H]1O[C@H](C#Cc2cc(-c3ccccc3)cc3cn[nH]c23)[C@@H](O)[C@@H](O)[C@@H]1O [Compound 25, (2R,3S,4R,5S,6R)-2-(hydroxymethyl)-6-[2-(5-phenyl-1H-indazol-7-yl)ethynyl]tetrahydropyran-3,4,5-triol] | 0.4 ± 0.04
3 | Cc1ccccc1-c1cc(C#C[C@H]2O[C@H](CO)[C@@H](O)[C@H](O)[C@@H]2O)c2[nH]ncc2c1 [Compound 26] | 0.7 ± 0.3
4 | OC[C@H]1O[C@H](C#Cc2cc(-c3cccnc3)cc3cn[nH]c23)[C@@H](O)[C@@H](O)[C@@H]1O [Compound 27, (2R,3S,4R,5S,6R)-2-(hydroxymethyl)-6-[2-[5-(3-pyridyl)-1H-indazol-7-yl]ethynyl]tetrahydropyran-3,4,5-triol] | 0.2 ± 0.03
5 | O=[N+]([O-])c1ccc(-c2cc(C#C[C@H]3O[C@H](CO)[C@@H](O)[C@H](O)[C@@H]3O)c3[nH]ncc3c2)cc1 [Compound 28, (2R,3S,4R,5S,6R)-2-(hydroxymethyl)-6-[2-[5-(4-nitrophenyl)-1H-indazol-7-yl]ethynyl]tetrahydropyran-3,4,5-triol] | 0.6 ± 0.4
6 | CN(C)c1ccc(-c2cc(C#C[C@H]3O[C@H](CO)[C@@H](O)[C@H](O)[C@@H]3O)c3[nH]ncc3c2)cc1 [Compound 29, (2R,3S,4R,5S,6R)-2-[2-[5-[4-(dimethylamino)phenyl]-1H-indazol-7-yl]ethynyl]-6-(hydroxymethyl)tetrahydropyran-3,4,5-triol] | 1 ± 0.7
7 | COc1ccc(-c2cc(C#C[C@H]3O[C@H](CO)[C@@H](O)[C@H](O)[C@@H]3O)c3[nH]ncc3c2)cc1 [Compound 30, (2R,3S,4R,5S,6R)-2-(hydroxymethyl)-6-[2-[5-(4-methoxyphenyl)-1H-indazol-7-yl]ethynyl]tetrahydropyran-3,4,5-triol] | 0.5 ± 0.2
8 | NC(=O)c1cccc(-c2cc(C#C[C@H]3O[C@H](CO)[C@@H](O)[C@H](O)[C@@H]3O)c3[nH]ncc3c2)c1 [Compound 31, 3-[7-[2-[(2R,3S,4R,5S,6R)-3,4,5-trihydroxy-6-(hydroxymethyl)tetrahydropyran-2-yl]ethynyl]-1H-indazol-5-yl]benzamide] | 0.7 ± 0.01
9 | OC[C@H]1O[C@H](C#Cc2cc(-c3ccc4nccn4c3)cc3cn[nH]c23)[C@@H](O)[C@@H](O)[C@@H]1O [Compound 32, (2R,3S,4R,5S,6R)-2-(hydroxymethyl)-6-[2-(5-imidazo[1,2-a]pyridin-6-yl-1H-indazol-7-yl)ethynyl]tetrahydropyran-3,4,5-triol] | 0.6 ± 0.005
10 | Cn1cnc2ccc(-c3cc(C#C[C@H]4O[C@H](CO)[C@@H](O)[C@H](O)[C@@H]4O)c4[nH]ncc4c3)cc21 [Compound 33, (2R,3S,4R,5S,6R)-2-(hydroxymethyl)-6-[2-[5-(3-methylbenzimidazol-5-yl)-1H-indazol-7-yl]ethynyl]tetrahydropyran-3,4,5-triol] | 0.4 ± 0.05
11 | Cc1cnccc1-c1cc(C#C[C@H]2O[C@H](CO)[C@@H](O)[C@H](O)[C@@H]2O)c2[nH]ncc2c1 [Compound 34, (2R,3S,4R,5S,6R)-2-(hydroxymethyl)-6-[2-[5-(3-methyl-4-pyridyl)-1H-indazol-7-yl]ethynyl]tetrahydropyran-3,4,5-triol] | 0.4 ± 0.09
12 | CS(=O)(=O)c1ccc(-c2cc(C#C[C@H]3O[C@H](CO)[C@@H](O)[C@H](O)[C@@H]3O)c3[nH]ncc3c2)cc1 [Compound 35, (2R,3S,4R,5S,6R)-2-(hydroxymethyl)-6-[2-[5-(4-methylsulfonylphenyl)-1H-indazol-7-yl]ethynyl]tetrahydropyran-3,4,5-triol] | 0.5 ± 0.1
13 | CC(=O)Nc1cccc(-c2cc(C#C[C@H]3O[C@H](CO)[C@@H](O)[C@H](O)[C@@H]3O)c3[nH]ncc3c2)c1 [Compound 36, N-[3-[7-[2-[(2R,3S,4R,5S,6R)-3,4,5-trihydroxy-6-(hydroxymethyl)tetrahydropyran-2-yl]ethynyl]-1H-indazol-5-yl]phenyl]acetamide] | 2 ± 0.2
14 | OC[C@H]1O[C@H](C#Cc2cc(-c3ccc4c(c3)OCO4)cc3cn[nH]c23)[C@@H](O)[C@@H](O)[C@@H]1O [Compound 37, (2R,3S,4R,5S,6R)-2-[2-[5-(1,3-benzodioxol-5-yl)-1H-indazol-7-yl]ethynyl]-6-(hydroxymethyl)tetrahydropyran-3,4,5-triol] | 0.7 ± 0.02
15 | COc1cccc(-c2cc(C#C[C@H]3O[C@H](CO)[C@@H](O)[C@H](O)[C@@H]3O)c3[nH]ncc3c2)c1 [Compound 38, (2R,3S,4R,5S,6R)-2-(hydroxymethyl)-6-[2-[5-(3-methoxyphenyl)-1H-indazol-7-yl]ethynyl]tetrahydropyran-3,4,5-triol] | 0.8 ± 0.5
16 | Cc1nnc(-c2ccc(-c3cc(C#C[C@H]4O[C@H](CO)[C@@H](O)[C@H](O)[C@@H]4O)c4[nH]ncc4c3)cc2)o1 [Compound 39, (2R,3S,4R,5S,6R)-2-(hydroxymethyl)-6-[2-[5-[4-(5-methyl-1,3,4-oxadiazol-2-yl)phenyl]-1H-indazol-7-yl]ethynyl]tetrahydropyran-3,4,5-triol] | 0.2 ± 0.05
17 | OC[C@H]1O[C@H](C#Cc2cc(-c3ccc4cc[nH]c4c3)cc3cn[nH]c23)[C@@H](O)[C@@H](O)[C@@H]1O [Compound 40, (2R,3S,4R,5S,6R)-2-(hydroxymethyl)-6-[2-[5-(1H-indol-6-yl)-1H-indazol-7-yl]ethynyl]tetrahydropyran-3,4,5-triol] | 1 ± 0.3
18 | NS(=O)(=O)c1cccc(-c2cc(C#C[C@H]3O[C@H](CO)[C@@H](O)[C@H](O)[C@@H]3O)c3[nH]ncc3c2)c1 [Compound 41, 3-[7-[2-[(2R,3S,4R,5S,6R)-3,4,5-trihydroxy-6-(hydroxymethyl)tetrahydropyran-2-yl]ethynyl]-1H-indazol-5-yl]benzenesulfonamide] | 0.4 ± 0.04
19 | CNC(=O)c1cncc(-c2cc(C#C[C@H]3O[C@H](CO)[C@@H](O)[C@H](O)[C@@H]3O)c3[nH]ncc3c2)c1 [Compound 42, N-methyl-5-[7-[2-[(2R,3S,4R,5S,6R)-3,4,5-trihydroxy-6-(hydroxymethyl)tetrahydropyran-2-yl]ethynyl]-1H-indazol-5-yl]pyridine-3-carboxamide] | 0.6 ± 0.2
20 | OC[C@H]1O[C@H](C#Cc2cc(C#CC3CC3)cc3cn[nH]c23)[C@@H](O)[C@@H](O)[C@@H]1O [Compound 43, (2R,3S,4R,5S,6R)-2-[2-[5-(2-cyclopropylethynyl)-1H-indazol-7-yl]ethynyl]-6-(hydroxymethyl)tetrahydropyran-3,4,5-triol] | 2 ± 1
21 | CC(C)(C)C#Cc1cc(C#C[C@H]2O[C@H](CO)[C@@H](O)[C@H](O)[C@@H]2O)c2[nH]ncc2c1 [Compound 44, (2R,3S,4R,5S,6R)-2-[2-[5-(3,3-dimethylbut-1-ynyl)-1H-indazol-7-yl]ethynyl]-6-(hydroxymethyl)tetrahydropyran-3,4,5-triol] | 5 ± 0.5
